Measurements reported in patent US20050107289A1, “Anti-microbial peptides and compositions” (priority 2001, published 2005).
Non-standard residues stand in square brackets, D forms with d. Residues, ends and D or L forms follow the SMILES beside them. NMeL = CN[C@@H](CC(C)C)C(=O)O

How the values were obtained:
[1] = tested on: S. aureus (MRSA) ATCC 33591; format: cell-based, Staphylococcus aureus; settings: for MRSA MIC / S. aureus (MRSA) MIC: ATCC 33591; for MRSA (in vitro activity): Table 9, media a: anti-microbial media-3 (AM-3)
In short: (§1)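 MIC read from NCCLS-style broth dilution. Peptide concentrations were set by quantitative HPLC or Trp UV absorbance at 280 nm, then serially halved from about 400 to 2 μg/ml in 5% DMSO/9% sucrose. Inoculum: approximately 2.5×10^5 cfu/ml.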

E. coli JM109(DE3) = format: cell-based, Escherichia coli; settings: JM109
Method: (§2) The antimicrobial activity of the peptides was determined using a broth dilution assay essentially as descried in the guidelines of the National Committee for […] (NCCLS) [National Committee for Clinical Laboratory Standards. Methods for dilution antimicrobial susceptibility tests for bacteria that grow aerobically. Fourth edition. Approved Standard (1997). Document M7-A4. […] The microdilution method has the advantages of requiring less amount of peptide for each assay and the possibility of multiple simultaneous inoculations and was used in most studies. Several of the strains of bacteria tested are further described in Table 3.
(§3) Preparation of peptide solutions. Stock peptide solutions were prepared in 5% DMSO in aq. sucrose (9%). Determination of peptide concentrations was done by quantitative HPLC analysis using known concentrations of internal standards and/or by measuring UV absorption of tryptophane-containing peptide solutions in H2O (λ=280 εTrp: 5690). Serial 2-fold dilutions were made in the above DMSO/aq. sucrose (9%) mixture with concentrations ranging approximately 400-2 μg/ml and aliquots were dispensed in test tubes (100 μl) for the macrodilution test or in microtiter plates (20 μl) for the microdilution assays.
(§4) Inoculum preparation. Overnight cultures of different microorganisms grown in suitable media were diluted 4000 times to an approximate inoculum size of 2.5×10^5 cfu/ml.
(§5) Macrodilution method. Macrodilution methods were performed using procedures similar to those described in the National Committee for Clinical Laboratory Standards. Methods for dilution antimicrobial susceptibility tests for bacteria that grow aerobically. Fourth edition. Approved Standard (1997). Document M7-A4. (NCCLS,Villanova, Pa., 1997). Two ml aliquots of the above inoculum were dispensed to test tubes containing different peptide solutions.
(§6) Microdilution method. Microdilution methods were performed using procedures similar to those described in the National Committee for Clinical Laboratory Standards. Methods for dilution antimicrobial susceptibility tests for bacteria that grow aerobically. Fourth edition. Approved Standard (1997). Document M7-A4.

murine red blood cells = assay: Red blood cell hemolysis; format: cell-based, mouse; settings: for Hemolysis HD50: red cells of murine
In short: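 Washed murine erythrocytes at 5% in saline with 10% FBS were exposed to serial peptide dilutions for 30 min at 37° C. Supernatant absorbance at 560 nm was read, with saline as 0% and 1% Triton X-100 as 100% hemolysis.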

[2] = tested on: vancomycin-resistant Enterococus faecalis (VRE)(ATCC 51575); format: cell-based, Enterococcus faecalis; parameters: key to VRE (in vitro activity): peptide concentration in μg/ml (broth dilution assay); settings: for VRE MIC: ATCC 51575; for VRE (in vitro activity): Table 9, media a: AM-3
In short: as §1

[3] = tested on: Bacillus cereus ATCC 11778; format: cell-based
Method: as §2, §3, §4, §5, §6

[4] = tested on: Streptococcus pneumoniae (ATCC 6301); format: cell-based
Method: as §2, §3, §4, §5, §6

| Compound | MRSA MIC [1] [µg/mL] | E. coli MIC (E. coli JM109(DE3)) [µg/mL] | VRE MIC [2] [µg/mL] | B. cerius MIC [3] [µg/mL] | S. pneum. MIC [4] [µg/mL] | S. aureus (MRSA) MIC [1] [µg/mL] | Hemolysis HD50 (murine red blood cells) [µg/mL] | MRSA (in vitro activity) [1] | RBC Hemolysis (HD50) (murine red blood cells) | VRE (in vitro activity) [2] |
| --- | --- | --- | --- | --- | --- | --- | --- | --- | --- | --- |
| CC(C)C[C@H]1NC(=O)[C@H](Cc2c[nH]c3ccccc23)NC(=O)[C@@H](CCCNC(=N)N)NC(=O)[C@H](CCC(N)=O)NC(=O)[C@@H](CCCNC(=N)N)NC(=O)[C@H](Cc2c[nH]c3ccccc23)NC(=O)[C@@H](CC(C)C)NC(=O)[C@H](Cc2c[nH]c3ccccc23)NC1=O [SEQ ID NO:10, RQRWLWLW] (cyclo([dR]Q[dR]W[dL]W[dL]W)) | 10 | – | 10 | < 1 | 4 | 18 | – | 10 | 25 | 10 |
| CC(C)C[C@H]1NC(=O)[C@H](Cc2c[nH]c3ccccc23)NC(=O)[C@@H](CC(C)C)NC(=O)[C@H](Cc2c[nH]c3ccccc23)NC(=O)[C@@H](CC(=O)O)NC(=O)CNC(=O)[C@@H](CCCNC(=N)N)NC(=O)[C@H](Cc2c[nH]c3ccccc23)NC1=O [SEQ ID NO:7, RGDWLWLW] (cyclo([dR]G[dD]W[dL]W[dL]W)) | 100 | 100 | 100 | > 280 | 70 | 100 | – | 100 | 100 | 100 |
| CC(C)C[C@H]1NC(=O)[C@H](Cc2c[nH]c3ccccc23)NC(=O)[C@@H](CO)NC(=O)[C@H](CCCCN)NC(=O)[C@@H](CO)NC(=O)[C@H](Cc2c[nH]c3ccccc23)NC(=O)[C@@H](CC(C)C)NC(=O)[C@H](Cc2c[nH]c3ccccc23)NC1=O [SEQ ID NO:5, cyclo-(D-Ser-Lys-D-Ser-Trp-D-Leu-Trp-D-Leu-Trp)] (cyclo(K[dS]W[dL]W[dL]W[dS])) | 20 | 100 | 20 | > 30 | 30 | 10 | – | 20 | 30 | 20 |
| CC(C)C[C@H]1NC(=O)[C@H](Cc2c[nH]c3ccccc23)NC(=O)[C@@H](Cc2c[nH]cn2)NC(=O)[C@H](Cc2c[nH]cn2)NC(=O)[C@@H](CO)NC(=O)[C@H](Cc2c[nH]c3ccccc23)NC(=O)[C@@H](CC(C)C)NC(=O)[C@H](Cc2c[nH]c3ccccc23)NC1=O [SEQ ID NO:15, SHHWLWLW] (cyclo([dS]H[dH]W[dL]W[dL]W)) | 30 | 100 | 50 | 11 | 40 | 20 | – | 30 | 20 | 50 |
| CC(C)C[C@H]1NC(=O)[C@H](Cc2c[nH]c3ccccc23)NC(=O)[C@@H](CCCCN)NC(=O)[C@H](CCC(N)=O)NC(=O)[C@@H](CCCCN)NC(=O)[C@H](Cc2c[nH]c3ccccc23)NC(=O)[C@@H](CC(C)C)NC(=O)[C@H](Cc2c[nH]c3ccccc23)NC1=O [SEQ ID NO:11, cyclo-[Gln-D-Lys-(Trp-D-Leu)2-Trp-D-Lys-]] (cyclo([dK]Q[dK]W[dL]W[dL]W)) | 20 | 100 | 20 | 7 | 8 | 45 | – | – | – | – |
| CC(C)C[C@H]1NC(=O)[C@H](Cc2c[nH]c3ccccc23)NC(=O)[C@@H](Cc2c[nH]cn2)NC(=O)[C@H](CCCCN)NC(=O)[C@@H](CO)NC(=O)[C@H](Cc2c[nH]c3ccccc23)NC(=O)[C@@H](CC(C)C)NC(=O)[C@H](Cc2c[nH]c3ccccc23)NC1=O [SEQ ID NO:14, cyclo-(D-Ser-Lys-D-His-Trp-D-Leu-Trp-D-Leu-Trp)] (cyclo(K[dH]W[dL]W[dL]W[dS])) | 15 | 100 | 30 | 6 | – | 15 | – | 15 | 20 | 30 |

Continued, in another order:

| MRSA MIC [1] [µg/mL] | E. coli MIC (E. coli JM109(DE3)) [µg/mL] | VRE MIC [2] [µg/mL] | B. cerius MIC [3] [µg/mL] | S. pneum. MIC [4] [µg/mL] | S. aureus (MRSA) MIC [1] [µg/mL] | Compound | Hemolysis HD50 (murine red blood cells) [µg/mL] | MRSA (in vitro activity) [1] | RBC Hemolysis (HD50) (murine red blood cells) | VRE (in vitro activity) [2] |
| --- | --- | --- | --- | --- | --- | --- | --- | --- | --- | --- |
| 70 | 6 | 100 | 22 | 40 | – | CC(=O)N[C@H](CCCNC(=N)N)C(=O)N[C@@H](CCCNC(=N)N)C(=O)N[C@H](CCCCN)C(=O)N[C@@H](Cc1c[nH]c2ccccc12)C(=O)N[C@H](CC(C)C)C(=O)N[C@@H](Cc1c[nH]c2ccccc12)C(=O)N[C@H](CC(C)C)C(=O)N[C@@H](Cc1c[nH]c2ccccc12)C(N)=O [SEQ ID NO:136, Ac-RRKWLWLW-NH2] (Ac-[dR]R[dK]W[dL]W[dL]W-NH2) | 100 | – | – | – |
| 12 | 6 | 80 | 23 | 25 | – | CC(C)C[C@H]1NC(=O)[C@H](Cc2c[nH]c3ccccc23)NC(=O)[C@@H](CCCCN)NC(=O)[C@H](CCCNC(=N)N)NC(=O)[C@@H](CCCNC(=N)N)NC(=O)[C@H](Cc2c[nH]c3ccccc23)NC(=O)[C@@H](CC(C)C)NC(=O)[C@H](CCCCN)NC1=O [SEQ ID NO:111, [RRKWLKLW]] (cyclo([dR]R[dK]W[dL]K[dL]W)) | 100 | 12 | 100 | 80 |
| – | 50 | – | – | – | 10 | CC(C)C[C@H]1NC(=O)[C@H](Cc2c[nH]c3ccccc23)NC(=O)[C@@H](CCCNC(=N)N)NC(=O)[C@H](CCCNC(=N)N)NC(=O)[C@@H](CCCNC(=N)N)NC(=O)[C@H](Cc2c[nH]c3ccccc23)NC(=O)[C@@H](CC(C)C)NC(=O)[C@H](Cc2c[nH]c3ccccc23)NC1=O [SEQ ID NO:20, RRRWLWLW] (cyclo([dR]R[dR]W[dL]W[dL]W)) | 35 | – | – | – |
| 25 | – | 25 | 13 | 20 | – | CC(C)C[C@H]1NC(=O)[C@H](CCCCN)NC(=O)[C@@H](CCCNC(=N)N)NC(=O)[C@H](Cc2c[nH]c3ccccc23)NC(=O)[C@@H](CC(C)C)NC(=O)[C@H](Cc2c[nH]c3ccccc23)NC1=O [SEQ ID NO:141, [RKLWLW]] (cyclo([dR]K[dL]W[dL]W)) | – | – | – | – |
| 100 | – | 100 | > 140 | 100 | – | CC(C)C[C@H]1NC(=O)[C@H](CCC(=O)O)NC(=O)[C@@H](CCCCN)NC(=O)[C@H](Cc2c[nH]c3ccccc23)NC(=O)[C@@H](CC(C)C)NC(=O)[C@H](Cc2c[nH]c3ccccc23)NC(=O)[C@@H](CC(C)C)NC(=O)[C@H](Cc2c[nH]c3ccccc23)NC1=O [SEQ ID NO:143, [KELWLWLW]] (cyclo([dK]E[dL]W[dL]W[dL]W)) | – | – | – | – |
| 10 | – | 100 | 8 | 10 | – | CC(C)C[C@H]1C(=O)N[C@H](Cc2c[nH]c3ccccc23)C(=O)N(C)[C@@H](CC(C)C)C(=O)N[C@H](Cc2c[nH]c3ccccc23)C(=O)N[C@@H](CCCCN)C(=O)N[C@H](CCC(N)=O)C(=O)N[C@@H](CCCNC(=N)N)C(=O)N[C@H](Cc2c[nH]c3ccccc23)C(=O)N1C [SEQ ID NO:140, c[KQRW^MeLW^MeLW]] (cyclo(K[dQ]R[dW][NMeL][dW][NMeL][dW])) | – | – | – | – |
| 10 | 35 | – | 10 | 5 | – | CC(C)C[C@@H]1NC(=O)[C@@H](Cc2c[nH]c3ccccc23)NC(=O)[C@H](CCCNC(=N)N)NC(=O)[C@@H](CCCNC(=N)N)NC(=O)[C@H](CCCNC(=N)N)NC(=O)[C@@H](Cc2c[nH]c3ccccc23)NC(=O)[C@H](CC(C)C)NC(=O)[C@@H](Cc2c[nH]c3ccccc23)NC1=O [SEQ ID NO:133, [RRRWLWLW]] (cyclo(R[dR]R[dW]L[dW]L[dW])) | 35 | – | – | – |
| 60 | – | 100 | 340 | 100 | – | CC(C)C[C@@H](NC(=O)[C@H](Cc1c[nH]c2ccccc12)NC(=O)[C@@H](CC(C)C)NC(=O)[C@H](Cc1c[nH]c2ccccc12)NC(=O)[C@@H](CCCCN)NC(=O)[C@H](CCCCN)NC(=O)[C@@H](CCCCN)NC(=O)[C@@H](N)Cc1c[nH]c2ccccc12)C(=O)O [SEQ ID NO:144, H-WKKKWLWL-OH] (H-W[dK]K[dK]W[dL]W[dL]-OH) | – | – | – | – |
